{"source": "paper PMC9873307", "about": "“Methylone, a rapid acting entactogen with robust anxiolytic and antidepressant-like activity” (Frontiers in Psychiatry, 2023)", "key": {"[1]": {"test_system": "vesicular monoamine transporter 2 (VMAT2)", "design": "method as in PMID 10528135", "details": "compared with MDMA; cited from earlier work"}, "[2]": {"test_system": "serotonin receptor 1A (5-HTR1A)", "design": "method as in PMID 23583454", "details": "not all reports support activity ([43]); cited from earlier work"}, "[3]": {"experiment": "Pharmacokinetics in plasma and brain after IP dosing", "assay_type": "in vivo", "details": "rat; for Kp: brain and plasma; for Kp / MRT last / half-life: ip", "method": "Pharmacokinetics studies were carried out at WuXi Apptec, Inc. (Cranbury, NJ, USA) using standard protocols. All animal use and procedures were approved by the WuXi Apptec, Inc., IACUC. Briefly, terminal blood and brain samples were collected from 6 to 8 week old male Sprague Dawley rats (Hilltop Lab Animals, Inc., Scottsdale, PA, USA) at 0.25, 0.5, 1, 2, 4, and 8 h (N = 3 per group per time point) for the determination of plasma concentrations of methylone following intraperitoneal (IP) dosing of 5, 10, or 15 mg/kg methylone. Since these were terminal collections, three independent rats per group were used for each time point in a single PK curve from which PK parameters (Cmax, AUC, etc.) were generated. Samples were collected into K2EDTA tubes on ice and centrifuged at 3000 × g at 4°C for 5 min within 30 min of collection. Plasma samples were stored at −80°C until analysis by liquid chromatography tandem mass spectrometry (LC-MS/MS). The bioanalytical assay provided a lower limit of quantification (LLOQ) of 1 ng/mL and an upper limit of quantification (ULOQ) of 3000 ng/mL for methylone. The plasma concentration-time data were analyzed using Phoenix WinNonlin (version 8.3) to characterize the PK properties of the analyte. The non-compartmental analysis model and the linear/log trapezoidal method were applied to the calculation of the PK parameters."}, "brain serotonin": {"test_system": "brain serotonin", "details": "repeated doses; cited from earlier work"}, "[4]": {"details": "male, Sprague Dawley, plasma, 5 mg/kg IP"}, "[5]": {"details": "male, Sprague Dawley, plasma, 10 mg/kg IP"}, "[6]": {"details": "male, Sprague Dawley, plasma, 15 mg/kg IP"}}, "note": "Read-outs that look alike come from different tables or passages of the source."}
{"smiles": "CNC(C)C(=O)c1ccc2c(c1)OCO2", "note": "(stereo not drawn) [methylone, 3,4-methylenedioxy-N-methylcathinone]", "values": [{"measurement": "lower potency at VMAT2 than MDMA", "setting": "[1]", "value": "> 10", "unit": "fold"}, {"measurement": "activity at 5-HTR1A", "setting": "[2]", "value": "partial agonist"}, {"measurement": "plasma concentration", "setting": "[3]; after 5 mg/kg dose", "value": "approximately 8 μM"}, {"measurement": "plasma concentration", "setting": "[3]; after 10 mg/kg dose", "value": "~18", "unit": "µM"}, {"measurement": "AUC0–last", "setting": "[3]; brain, 5 mg/kg IP", "value": 1661, "unit": "ng·h/g"}, {"measurement": "Tlast", "setting": "[3]; brain, 5 mg/kg IP", "value": 4.00, "unit": "h"}, {"measurement": "AUC0–last", "setting": "[3]; brain, 10 mg/kg IP", "value": 5576, "unit": "ng·h/g"}, {"measurement": "Tlast", "setting": "[3]; brain, 10 mg/kg IP", "value": 4.00, "unit": "h"}, {"measurement": "AUC0–last", "setting": "[3]; brain, 15 mg/kg IP", "value": 13201, "unit": "ng·h/g"}, {"measurement": "Tlast", "setting": "[3]; brain, 15 mg/kg IP", "value": 8.00, "unit": "h"}, {"measurement": "Kp", "setting": "[3]; male, Sprague Dawley, 5 mg/kg, 5 mg/kg IP, read-out: AUC ratio (brain: plasma)", "value": 1.83}, {"measurement": "Kp", "setting": "[3]; male, Sprague Dawley, 10 mg/kg, 10 mg/kg IP, read-out: AUC ratio (brain: plasma)", "value": 1.72}, {"measurement": "Kp", "setting": "[3]; male, Sprague Dawley, 15 mg/kg, 15 mg/kg IP, read-out: AUC ratio (brain: plasma)", "value": 1.8}, {"measurement": "Kp", "setting": "[3]; male, Sprague Dawley, 15 mg/kg, across 5, 10, 15 mg/kg IP, read-out: brain to plasma AUC ratio", "value": "~1.8"}, {"measurement": "MRT last", "setting": "[3]; male, Sprague Dawley, brain, 5 mg/kg, brain, 5 mg/kg IP, read-out: MRT0–last", "value": 41.8, "unit": "min"}, {"measurement": "half-life", "setting": "[3]; male, Sprague Dawley, brain, 5 mg/kg, brain, 5 mg/kg IP, read-out: T1/2 (converted)", "value": 41.5, "unit": "min"}, {"measurement": "MRT last", "setting": "[3]; male, Sprague Dawley, brain, 10 mg/kg, brain, 10 mg/kg IP, read-out: MRT0–last", "value": 61.8, "unit": "min"}, {"measurement": "half-life", "setting": "[3]; male, Sprague Dawley, brain, 10 mg/kg, brain, 10 mg/kg IP, read-out: T1/2 (converted)", "value": 36.4, "unit": "min"}, {"measurement": "MRT last", "setting": "[3]; male, Sprague Dawley, brain, 15 mg/kg, brain, 15 mg/kg IP, read-out: MRT0–last", "value": 60.6, "unit": "min"}, {"measurement": "half-life", "setting": "[3]; male, Sprague Dawley, brain, 15 mg/kg, brain, 15 mg/kg IP, read-out: T1/2 (converted)", "value": 53, "unit": "min"}, {"measurement": "MRT last", "setting": "[3]; male, Sprague Dawley, plasma, 5 mg/kg, plasma, 5 mg/kg IP, read-out: MRT0–last", "value": 40, "unit": "min"}, {"measurement": "half-life", "setting": "[3]; male, Sprague Dawley, plasma, 5 mg/kg, plasma, 5 mg/kg IP, read-out: T1/2 (converted)", "value": 35.9, "unit": "min"}, {"measurement": "MRT last", "setting": "[3]; male, Sprague Dawley, plasma, 10 mg/kg, plasma, 10 mg/kg IP, read-out: MRT0–last", "value": 64.2, "unit": "min"}, {"measurement": "half-life", "setting": "[3]; male, Sprague Dawley, plasma, 10 mg/kg, plasma, 10 mg/kg IP, read-out: T1/2 (converted)", "value": 40.4, "unit": "min"}, {"measurement": "MRT last", "setting": "[3]; male, Sprague Dawley, plasma, 15 mg/kg, across 5, 10, 15 mg/kg IP, read-out: mean residence time (MRT0–last)", "value": "42 to 67.8", "unit": "min"}, {"measurement": "half-life", "setting": "[3]; male, Sprague Dawley, plasma, 15 mg/kg, across 5, 10, 15 mg/kg IP, read-out: terminal elimination half-life (T1/2)", "value": "36 to 48", "unit": "min"}, {"measurement": "MRT last", "setting": "[3]; male, Sprague Dawley, plasma, 15 mg/kg, plasma, 15 mg/kg IP, read-out: MRT0–last", "value": 67.8, "unit": "min"}, {"measurement": "half-life", "setting": "[3]; male, Sprague Dawley, plasma, 15 mg/kg, plasma, 15 mg/kg IP, read-out: T1/2 (converted)", "value": 48.7, "unit": "min"}, {"measurement": "Cmax", "setting": "[3]; male, Sprague Dawley, brain, 5 mg/kg IP", "value": 3510, "unit": "ng/g"}, {"measurement": "Cmax", "setting": "[3]; male, Sprague Dawley, brain, 10 mg/kg IP", "value": 8020, "unit": "ng/g"}, {"measurement": "Cmax", "setting": "[3]; male, Sprague Dawley, brain, 15 mg/kg IP", "value": 20000, "unit": "ng/g"}, {"measurement": "AUC(0-t)", "setting": "[3]; [4]", "value": 908, "unit": "ng·h/mL"}, {"measurement": "Cmax", "setting": "[3]; [4]", "value": 1980, "unit": "ng/mL"}, {"measurement": "AUC(0-t)", "setting": "[3]; [5]", "value": 3240, "unit": "ng·h/mL"}, {"measurement": "Cmax", "setting": "[3]; [5]", "value": 4510, "unit": "ng/mL"}, {"measurement": "AUC(0-t)", "setting": "[3]; [6]", "value": 7320, "unit": "ng·h/mL"}, {"measurement": "Cmax", "setting": "[3]; [6]", "value": 8470, "unit": "ng/mL"}, {"measurement": "Tmax", "setting": "[3]; male, Sprague Dawley, plasma, 5, 10 or 15 mg/kg IP", "value": 15, "unit": "min"}, {"measurement": "Tlast", "setting": "[3]; plasma, 5 mg/kg IP", "value": 4.00, "unit": "h"}, {"measurement": "Tlast", "setting": "[3]; plasma, 10 mg/kg IP", "value": 8.00, "unit": "h"}, {"measurement": "Tlast", "setting": "[3]; plasma, 15 mg/kg IP", "value": 8.00, "unit": "h"}, {"measurement": "depletion of brain serotonin", "setting": "brain serotonin", "value": "do not deplete brain serotonin"}]}
